Key:
[1] = test system: ATM cytoplasmic translocation; assay: Cytoplasmic accumulation of ATM, fractionation experiment (NE/CE) with WB, HepG2 cells; type: cell-based, human; settings: 5 μM
Method: FIG. 7: Cytoplasmic accumulation of ATM. (A) Fractionation experiment with separated nuclear extracts (NE) and cytoplasmic extracts (CE). PARP1 and LDH staining served as loading and fractionation controls. Cells were pre-treated with DMSO or MW01 (5 μM) prior to irradiation and cell harvesting at indicated times. NE and CE were subjected to SDS-PAGE/WB procedure. (B) U2OS cells were seeded on cover slips 2 days before treatment. The cells were pre-treated with solvent DMSO alone or with MW01 prior to irradiation, cell fixation and subsequent immunofluorescence staining.
For the preparation of nuclear and cytoplasmic fractions, cells were lysed with buffer A (supplemented with 1 mM DTT, 10 mM NaF, 20 mM β-glycerophosphate, 250 nM NaVO3, complete protease inhibitor cocktail (Roche) and 50 nM calyculin A. Lysates were adjusted to a final concentration of 0.2% NP-40, vortexed for 10 s and spun down. The supernatant, representing the cytoplasmic extract (CE), was transferred into a new 1.5 ml reaction tube. The pellet was washed with buffer A, was resuspended with buffer C and shaken for 20 min at 4° C. Following 10 min of centrifugation at 14,000 rpm, the supernatant, representing the nuclear extract (NE), was transferred into a new reaction cap.

PARP1 = biological target: T1, PARP1 (Mus musculus, UniProt P11103); assay: PARP1 enzymatic activity, PAR chain formation after γ-irradiation, MEF cells; type: cell-based
T1 construct: endogenous in cells; host or cells: MEF (mouse embryonic fibroblasts)
Excerpt: FIG. 10: (A) MEF cells were pre-treated with the indicated substances, irradiated and cell lysates were used for poly(ADP)-ribose probing using a specific antibody. (B) Experiment performed as described for (A), but using U2OS cells.

[2] = test system: TNFα-induced canonical NF-κB activation; assay: TNFα-induced p65 nuclear translocation (counter screening), U2OS cells; type: cell-based, human; settings: different concentrations
Method: FIG. 4: (A) U2OS cells were pre-treated with increasing concentrations of MW01 in triplicates in a 384 well plate. Then, cells were treated with TNFα, fixed and subjected to IF staining of p65. Spatial measurement of p65 cytosolic and nuclear signals was used for the calculation of p65 translocation rates. (B) U2OS cells were pre-treated with MW01 at concentrations of 10 or 20 μM and stimulated with TNFα. Cell lysates were subjected to SDS-PAGE/WB. (C) HEK293 cells were pre-treated with DMSO or MW01 followed by administration of etoposide or TNFα. Cell lysates were used for EMSA.
For the activation of the canonical NF-κB pathway cells were treated with recombinant human TNFα (10 ng/ml) or IL-1β (10 ng/ml) for 20-30 min at 37° C.
For immunofluorescence staining 0.95×10^5 cells were seeded in 6 well plates onto autoclaved cover slips. Cellular confluency dictated to beginning of the experiment (2-3 days from seeding). After conduction of experiments cells were washed with PBS and fixed with 4% PFA/double-distilled H2O (ddH2O) for 10 min at RT. Following two additional washing steps cells were incubated with a solution containing 0.12% glycine/0.2% saponin in PBS for 10 min and then blocked with a solution containing 10% FCS/0.2% saponin in PBS for 1 h. Primary antibody incubation was performed overnight at 4° C. (1:500 diluted in 0.2% saponin in PBS). […]

MEF cells = assay: Annexin V staining, flow cytometry, MEF cells; type: cell-based, mouse
Method: FIG. 16: (A) U2OS cells were pre-treated with DMSO or MW01 and irradiated. Cells were lysed 8 h post γ-IR and were used for western blotting and immunochemical staining. (B) HEK293 cells were pre-treated with DMSO or MW01 and irradiated. After 48 h cells were fixed and stained with crystal violet. Dissolved crystal violet was used for absorbance measurement in a visible light spectrophotometer at a wavelength of 595 nm. (C) HEK293 cells were pre-treated with DMSO or MW01 and irradiated. The percentage of viable cells within the population was calculated by exclusion of annexin V and propidium-iodide positive cells measured by flow cytometry. (D) MEF cells were pre-treated with DMSO or MW01 and irradiated. Cells were used for annexin V staining 24 h and 48 after γ-IR. Percentage of annexin V positive cell population was analysed using a flow cytometer. (E) Experiment done as shown in (D) but with HT1080 cells processed 8 h after irradiation. Statistical significance was calculated using students t-test.
Cells were washed with ice-cold PBS and detached from growing dishes using Trypsin/EDTA solution. Detached cells were centrifuged at 300×g for 5 min. Detection of early apoptotic cells was performed by staining with annexin V-FITC antibody according to manufacturer's instructions (eBioscience Annexin V-FITC Apoptosis detection Kit). Necroptotic and late apoptotic cells were stained by addition of propidium iodide (final concentration 1 μg/ml) prior to measurements.
The sensitising effect of MW01 on cells was tested in MEF cells with a low irradiation dose of 2 Gy, an amount cells are able to repair. Cells were pre-treated with MW01, irradiated and cells were analysed by annexin V staining 24 or 48 h after irradiation. After 24 h, the treatment of cells with MW01 led to an increase of annexin V positive cells of about 10%. […] Comparing the annexin V positive cells of MW01 treated and MW01/γ-IR co-treated samples, a sensitising effect for low γ-irradiation dose-induced apoptosis of about 12% was found (FIG. 16 D).

T1 sequence (P11103 whole entry): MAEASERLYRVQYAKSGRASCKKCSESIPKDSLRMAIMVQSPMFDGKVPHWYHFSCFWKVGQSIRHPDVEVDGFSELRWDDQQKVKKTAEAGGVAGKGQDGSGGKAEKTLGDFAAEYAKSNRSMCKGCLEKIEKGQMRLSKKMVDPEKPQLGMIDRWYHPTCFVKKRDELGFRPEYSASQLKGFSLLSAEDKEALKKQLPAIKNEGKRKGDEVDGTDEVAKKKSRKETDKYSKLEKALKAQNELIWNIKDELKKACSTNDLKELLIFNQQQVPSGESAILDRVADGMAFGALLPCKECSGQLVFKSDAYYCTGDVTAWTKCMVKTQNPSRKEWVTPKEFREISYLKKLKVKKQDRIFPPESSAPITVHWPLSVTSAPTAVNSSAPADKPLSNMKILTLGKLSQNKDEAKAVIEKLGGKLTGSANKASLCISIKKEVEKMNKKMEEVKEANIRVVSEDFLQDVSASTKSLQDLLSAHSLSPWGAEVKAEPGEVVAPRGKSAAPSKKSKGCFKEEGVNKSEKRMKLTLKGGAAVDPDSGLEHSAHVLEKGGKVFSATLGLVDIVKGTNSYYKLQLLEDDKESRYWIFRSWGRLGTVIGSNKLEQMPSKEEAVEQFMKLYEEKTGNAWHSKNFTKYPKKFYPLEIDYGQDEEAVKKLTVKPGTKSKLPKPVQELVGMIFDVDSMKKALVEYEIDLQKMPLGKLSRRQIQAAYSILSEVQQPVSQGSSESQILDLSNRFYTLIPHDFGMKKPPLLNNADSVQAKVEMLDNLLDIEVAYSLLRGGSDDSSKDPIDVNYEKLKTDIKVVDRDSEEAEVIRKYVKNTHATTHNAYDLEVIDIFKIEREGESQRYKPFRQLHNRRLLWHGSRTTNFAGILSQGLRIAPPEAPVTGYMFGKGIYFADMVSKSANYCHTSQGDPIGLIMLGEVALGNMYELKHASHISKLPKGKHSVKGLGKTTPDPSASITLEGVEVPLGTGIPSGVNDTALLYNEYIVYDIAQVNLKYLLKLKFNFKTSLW

SMILES: COc1ccc2c(c1OC)c(=O)n1c3ccc(O)cc3c3ccnc2c31 [MW01, 12-hydroxy-6,7-dimethoxy-8H-benzo[c]indolo[3,2,1-ij][1,5]naphthyridin-8-one]
- accumulation of total ATM in the cytoplasm ([1]; 45 min after irradiation): inhibited the accumulation of ATM in the cytoplasm
- detection of phosphorylated ATM in nuclear extracts ([1]; 45 min and 90 min after irradiation): did not affect
- detection of activated ATM species in the cytoplasmic extracts ([1]; after irradiation): abolished
- PAR chain formation / PARP1 enzymatic activity (PARP1): did not interfere with activation of PARP1 enzymatic activity
- effect on p65 nuclear translocation / NF-κB activation after TNFα stimulation [2]: did not interfere with p65 nuclear translocation rates
- increase of annexin V positive cells (MEF cells; 24 h, without IR): about 10%
- sensitising effect for low γ-irradiation dose-induced apoptosis (MEF cells; MW01 vs MW01/γ-IR co-treated samples): about 12%
- annexin V staining of cells (MEF cells; after 2 Gy of γ-irradiation): circa 34%

— patent US11028084B2, “Selective inhibitors of gentotoxic steress-induced IKK/NF-κB pathways” (Max-Delbrück-Centrum für Molekulare Medizin in der …, priority 2016, dated 2021)
